Data: ChEMBL document CHEMBL1151789, “Molecular modeling studies toward the structural optimization of new cyclopeptide-based HDAC inhibitors modeled on the natural product FR235222” (Bioorg Med Chem, 2008)

Test: Inhibition of HDLP

SMILES | IC50 | Ki
C[C@H](O)C(=O)CCCCC[C@@H]1NC(=O)[C@@H]2CCCN2C(=O)[C@H](Cc2ccccc2)NC(=O)[C@H](Cc2ccc(Cl)cc2)NC1=O |  | 23.4 nM
C[C@H](O)C(=O)CCCCC[C@@H]1NC(=O)[C@@H]2CCCN2C(=O)[C@H](Cc2ccccc2)NC(=O)C2(CCCCC2)NC1=O |  | 6.79 nM
C[C@H](O)C(=O)CCCCC[C@@H]1NC(=O)[C@H]2CCCN2C(=O)[C@H](Cc2ccccc2)NC(=O)[C@H](Cc2ccc(Cl)cc2)NC1=O |  | 87.1 nM
C[C@H](O)C(=O)CCCCC[C@@H]1NC(=O)[C@@H]2CCCN2C(=O)[C@H](Cc2ccccc2)NC(=O)[C@H](Cc2cnc[nH]2)NC1=O |  | 20 nM
CC[C@]1(C)NC(=O)[C@H](CCCCCC(=O)[C@@H](C)O)NC(=O)[C@H]2CCCN2C(=O)[C@H](Cc2ccccc2)NC1=O | 50 nM | 18.6 nM
C[C@@H](O)C(=O)CCCCC[C@@H]1NC(=O)[C@H]2CCCN2C(=O)[C@H](Cc2ccccc2)NC(=O)[C@H](Cc2c[nH]c3ccccc23)NC1=O | 20 nM | 0.987 nM
C[C@@H](O)C(=O)CCCCC[C@@H]1NC(=O)[C@@H]2CCCN2C(=O)[C@H](Cc2ccccc2)NC(=O)[C@H](Cc2c[nH]c3ccccc23)NC1=O |  | 7.77 nM
C[C@@H](O)C(=O)CCCCC[C@@H]1NC(=O)[C@H]2CCCN2C(=O)[C@H](Cc2ccccc2)NC(=O)[C@H](Cc2ccccc2)NC1=O | 280 nM | 36.9 nM
C[C@@H](O)C(=O)CCCCC[C@@H]1NC(=O)[C@@H]2CCCN2C(=O)[C@H](Cc2ccccc2)NC(=O)[C@H](Cc2ccccc2)NC1=O |  | 82.1 nM
CC[C@]1(C)NC(=O)[C@H](CCCCCC(=O)[C@@H](C)O)NC(=O)[C@@H]2CCCN2C(=O)[C@H](Cc2ccccc2)NC1=O |  | 12.7 nM
C[C@H](O)C(=O)CCCCC[C@@H]1NC(=O)[C@H]2CCCN2C(=O)[C@H](Cc2ccccc2)NC(=O)[C@H](Cc2cnc[nH]2)NC1=O | 350000 nM | 34.2 nM

The remaining lines, values ahead:

IC50 | Ki | SMILES
90 nM | 60.4 nM | CC[C@]1(C)NC(=O)[C@H](CCCCCC(=O)[C@@H](C)O)NC(=O)[C@H]2CC(C)(C)CN2C(=O)[C@H](Cc2ccccc2)NC1=O
 | 45.8 nM | CC[C@]1(C)NC(=O)[C@H](CCCCCC(=O)[C@@H](C)O)NC(=O)[C@@H]2CC(C)(C)CN2C(=O)[C@H](Cc2ccccc2)NC1=O
670 nM | 25.4 nM | C[C@H](O)C(=O)CCCCC[C@@H]1NC(=O)[C@H]2CCCN2C(=O)[C@H](Cc2ccccc2)NC(=O)C2(CCCCC2)NC1=O
330 nM | 194 nM | C[C@H](O)C(=O)CCCCC[C@@H]1NC(=O)[C@H]2CCCN2C(=O)[C@H](Cc2ccccc2)NC(=O)C(C)(C)NC1=O
1000 nM | 110 nM | CC[C@@H]1NC(=O)[C@H](CCCCCC(=O)[C@H](C)O)NC(=O)[C@H]2CCCN2C(=O)[C@H](Cc2ccccc2)NC1=O
 | 52.8 nM | C[C@H](O)C(=O)CCCCC[C@@H]1NC(=O)[C@@H]2CCCN2C(=O)[C@H](Cc2ccccc2)NC(=O)C(C)(C)NC1=O
 | 10.6 nM | C[C@@H](O)C(=O)CCCCC[C@@H]1NC(=O)[C@@H]2CCCN2C(=O)[C@H](Cc2ccccc2)NC(=O)C(C)(C)NC1=O
 | 53.6 nM | CC[C@@H]1NC(=O)[C@H](CCCCCC(=O)[C@H](C)O)NC(=O)[C@@H]2CCCN2C(=O)[C@H](Cc2ccccc2)NC1=O
30 nM | 16.4 nM | C[C@@H](O)C(=O)CCCCC[C@@H]1NC(=O)[C@H]2CCCN2C(=O)[C@H](Cc2ccccc2)NC(=O)C(C)(C)NC1=O
